Data taken from PubChem BioAssay (NCI).
“And” between values parts separate entries of the source, which are not always exact repeats. Identical values can stand only once.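 Five compound concentrations were applied to cells in 96-well plates for 48 hours; endpoints were derived by simple linear interpolation of the resulting dose-response curve. Here, GI50 denotes the concentration required for 50% inhibition of growth. TGI denotes the concentration required for complete inhibition of growth.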

Experiments:
Test in all cases: DTP human tumour cell line panel, 48 h
[1] = test system: HL-60(TB) leukemia
[2] = test system: LOX IMVI melanoma
[3] = test system: HCT-116 colon
[4] = test system: SF-295 CNS
[5] = test system: HCC-2998 colon
[6] = test system: NCI-H23 lung
[7] = test system: NCI-H460 lung
[8] = test system: SNB-75 CNS
[9] = test system: UACC-62 melanoma

Row | Structure (SMILES) | TGI [1] | TGI [2] | TGI [3] | TGI [4] | TGI [5] | TGI [6] | TGI [7] | TGI [8] | TGI [9] | GI50 [1] | GI50 [2] | GI50 [3] | GI50 [4] | GI50 [5] | GI50 [6] | GI50 [7] | GI50 [8] | GI50 [9]
1 | O=C(O)CCCCCO | > 100 µM | > 100 µM | > 100 µM | > 100 µM | > 100 µM | > 100 µM | > 100 µM | > 100 µM | > 100 µM |  |  |  |  |  |  |  |  | 
2 | COc1cc([C@@H]2c3cc4c(cc3[C@@H](NCc3ccccc3)C3COC(=O)[C@@H]32)OCO4)cc(OC)c1O (stereo partly specified) | 10.1 µM | 25.9 µM | > 100 µM | 26.5 µM | 33 µM | 23.8 µM | 15.8 µM | 23.8 µM | 22.1 µM |  |  |  |  |  |  |  |  | 
3 | Cc1ccc(S(=O)(=O)SCc2ccccc2CSS(=O)(=O)c2ccc(C)cc2)cc1 | 34.7 µM | 29.4 µM | 59.6 µM | > 100 µM | > 100 µM | 46.4 µM | > 100 µM | > 100 µM | 31 µM |  |  |  |  |  |  |  |  | 
4 | O=C1[C@@H]2C3SC(c4ccccc43)[C@@H]2C(=O)N1c1ccccc1 | > 100 µM | > 100 µM | > 100 µM | > 100 µM | > 100 µM | > 100 µM | > 100 µM | > 83 µM | > 100 µM |  |  |  |  |  |  |  |  | 
5 | NCCCC1NC(=O)/C(=C(O)/C=C/C2CCC[C@@H]2CC2SCCS2)C1=O (stereo partly specified) | 64.3 µM | > 100 µM | > 100 µM | > 100 µM | > 100 µM | > 100 µM | > 100 µM | > 100 µM | > 100 µM |  |  |  |  |  |  |  |  | 
6 | CCc1ccc(Nc2cc(=O)[nH]c(=S)n2C)cc1 | > 100 µM | > 100 µM | > 100 µM | > 100 µM |  | > 100 µM | > 100 µM | > 100 µM | > 100 µM |  |  |  |  |  |  |  |  | 
7 | COc1ccc2nc(NC(=O)C(=O)C(C(=O)c3ccccc3-c3ccccc3)C3OC(=O)c4ccccc43)sc2c1 (stereo unspecified) | 72.5 µM | 35.4 µM | 27.6 µM | > 100 µM | 29.1 µM | 30.5 µM | 50.2 µM | 35.1 µM | 34.3 µM |  |  |  |  |  |  |  |  | 
8 | Nc1ccc2c(c1)CC1c3ccccc3C(C2)c2ccccc21 | > 100 µM | > 100 µM | > 100 µM | > 100 µM | > 100 µM |  | > 100 µM | > 100 µM | > 100 µM |  |  |  |  |  |  |  |  | 
9 | CCC[CH2][Ge]([CH2]CCC)([CH2]CCC)[O]C(=O)C(OC)c1ccccc1 (stereo unspecified) | > 26.1 µM | 35.1 µM | > 100 µM | > 100 µM | 59 µM | 51.8 µM | > 100 µM | > 100 µM | > 100 µM | 2.96 µM | 14.3 µM | 16.5 µM | 18.3 µM | 23.2 µM | 6.86 µM | 22.1 µM | 41.1 µM | 30.7 µM
10 | CN(C)CC/C(=N\Nc1ccc(Cl)c(Cl)c1)c1ccccc1 | 5.8 µM | 3.06 µM | 3.19 µM | 3.99 µM |  | 3.67 µM | 3.65 µM | 7.08 µM | 3.88 µM |  |  |  |  |  |  |  |  | 
11 | COc1c(NC(=O)CC(C)=O)[c]([Hg][O]C(C)=O)c(OC)c(Cl)[c]1[Hg][O]C(C)=O |  |  | 31.8 µM | 31.8 µM | 34.3 µM | 27.6 µM | 49.9 µM | 29.5 µM | 22.9 µM |  |  | 15.2 µM | 17 µM | 18.8 µM | 11.8 µM | 21.3 µM | 9.69 µM | 11 µM
12 | Cc1ccc(NC(=O)CC/C(CC(=O)c2ccc(F)cc2)=N\NC(=O)C(=O)NN)cc1C | > 100 µM | > 100 µM | > 100 µM | > 100 µM | > 100 µM | > 100 µM | > 100 µM | > 100 µM | > 100 µM |  |  |  |  |  |  |  |  | 
13 | COc1cc(C(=O)C/C(CCC(=O)Nc2ccc(Cl)cc2Cl)=N/NC(=O)C(N)=O)ccc1O | > 100 µM |  | > 100 µM | > 100 µM | > 100 µM | > 100 µM | > 100 µM | 43.7 µM | > 100 µM |  |  |  |  |  |  |  |  | 
14 | CCOC(=O)N1N=NC2C3OC(C[C@@]3(C#N)OC(C)=O)[C@H]21 (stereo partly specified) | > 100 µM | > 100 µM | > 100 µM | > 100 µM | > 100 µM | > 100 µM | > 100 µM | > 100 µM | > 100 µM |  |  |  |  |  |  |  |  | 
15 | N#CCN1CCOCCOCCN(CC#N)CCOCCOCC1 | > 100 µM | > 100 µM | > 100 µM | > 100 µM | > 100 µM | > 100 µM | > 100 µM | > 100 µM | > 100 µM |  |  |  |  |  |  |  |  | 
16 | CCOC(=O)[C@H]1Nc2ccc(Cl)cc2[C@H]2OCC[C@@H]12 | > 100 µM | > 100 µM | > 100 µM | > 100 µM | > 100 µM | > 100 µM | > 100 µM | > 100 µM | > 100 µM |  |  |  |  |  |  |  |  | 
17 | Nc1nc(N)c(N=O)c(Nc2ccc(I)cc2)n1 | 36.7 µM | 51.6 µM | 43.5 µM | 67.9 µM | 88.2 µM | 82.5 µM | > 100 µM |  | 37.9 µM |  |  |  |  |  |  |  |  | 

Row | Structure (SMILES) | TGI [1] | TGI [2] | TGI [3] | TGI [4] | TGI [5] | TGI [6] | TGI [7] | TGI [8] | TGI [9] | GI50 [1] | GI50 [2] | GI50 [3] | GI50 [4] | GI50 [5] | GI50 [6] | GI50 [7] | GI50 [8] | GI50 [9]
18 | CCC[CH2][Sn]([CH2]CCC)([O]C(=O)c1cc(OC)c(OC)cc1OC)[O]C(=O)c1cc(OC)c(OC)cc1OC |  | 3.34 µM | 2.85 µM | 5.88 µM |  | 1.96 µM | 12.1 µM | 1.53 µM | 2.37 µM |  | 1.04 µM | 1.51 µM | 2.28 µM |  | 0.674 µM | 3.08 µM | 0.402 µM | 1.12 µM
19 | Cc1c(C(=O)/C=C/c2ccccc2Cl)[n+](=O)c2ccccc2n1[O-] | 62.8 µM |  | 22.5 µM | 28 µM |  | 28.5 µM | 24.4 µM | 30.5 µM |  |  |  |  |  |  |  |  |  | 
20 | CCC[CH2][Ge]([CH2]CCC)([CH2]CCC)[O]C(=O)C(O)c1ccccc1 (stereo unspecified) | 4.3 µM | 13.6 µM | 13.8 µM | 17.6 µM | 14.4 µM | 9.91 µM | 34.9 µM | > 100 µM | 18.1 µM |  | 1.85 µM | 0.571 µM | 1.01 µM | 2.69 µM | 0.366 µM | 3.03 µM | 4.51 µM | 4.03 µM
21 | CC(=O)Nc1ccccc1-c1cnc2ccccc2n1 | > 100 µM | > 100 µM | > 100 µM | > 100 µM | > 100 µM | > 100 µM | > 100 µM | > 100 µM | > 100 µM |  |  |  |  |  |  |  |  | 
22 | O=C(/C=C/c1ccccc1O)c1cccnc1 | > 100 µM | > 100 µM | > 100 µM | > 100 µM | > 100 µM | > 100 µM | > 100 µM | > 100 µM | > 100 µM |  |  |  |  |  |  |  |  | 
23 | COc1cc2ccnc(-c3c4ccccc4c(N)c4c(OC)c(OC)ccc34)c2cc1OC | 4.44 µM | 3.08 µM |  | 13.9 µM | 8.86 µM | 17.7 µM | 6.53 µM |  | 10.1 µM |  |  |  |  |  |  |  |  | 
24 | COc1cc2c(c(OC)c1OC)-c1ccc(SC)c(=O)cc1[C@@H](NCc1cccc(C#N)c1)CC2 |  | 16.6 µM |  |  | 0.0515 µM | < 0.0075 µM | 8.97 µM | 0.0568 µM | 0.0637 µM | < 0.0075 µM | < 0.0075 µM | < 0.0075 µM | < 0.0075 µM |  |  |  |  | 
25 | CC(=O)OCC1OC(n2c(=O)n(-c3ccccc3)c(=O)c3cc(Br)cc(Br)c32)C(OC(C)=O)C(OC(C)=O)C1OC(C)=O (stereo unspecified) | > 100 µM | > 100 µM | > 100 µM | > 100 µM | > 100 µM | > 100 µM | > 100 µM | > 100 µM | > 100 µM |  |  |  |  |  |  |  |  | 
26 | Cc1nc(-c2nc(C)c(C(=O)NN(C)C)s2)sc1C(=O)NN(C)C | > 100 µM | 48.9 µM |  | > 100 µM | > 100 µM | > 100 µM | > 100 µM | > 100 µM | > 100 µM |  |  |  |  |  |  |  |  | 
27 | Cc1ccccc1-c1c(N)nc(N)nc1C(=O)Nc1nccs1 | > 100 µM | > 100 µM | > 100 µM | > 100 µM | > 100 µM | > 100 µM | > 100 µM | > 100 µM | > 100 µM |  |  |  |  |  |  |  |  | 
28 | CCC1(C(=O)OC)CCc2c(OC)ccc(OC)c2C1=O (stereo unspecified) | > 100 µM | > 100 µM | > 100 µM | > 100 µM | > 100 µM | > 100 µM | > 100 µM |  | > 100 µM |  |  |  |  |  |  |  |  | 
29 | CC(=O)C1C(=O)C(=O)N(c2ccccc2N2C(=O)C(=O)C(C(C)=O)C2=O)C1=O (stereo unspecified) | > 100 µM | > 100 µM | > 100 µM | > 100 µM | > 100 µM | > 100 µM | > 100 µM | > 100 µM | > 100 µM |  |  |  |  |  |  |  |  | 
30 | Nc1ncnc2c(C3OC(CO)C(O)C3O)scc12 (stereo unspecified) | 0.00946 µM | 1.49 µM and 2 µM | 1.12 µM and 2.72 µM | 2.45 µM and 3.66 µM | 0.121 µM and 0.277 µM | 1.33 µM and 1.39 µM | 0.554 µM and 1.12 µM | 5.5 µM |  |  | 0.0233 µM |  | 0.591 µM |  | 0.0585 µM |  |  | 
31 | O=C(CC(=O)Nc1ccccc1O)Nc1ccccc1O | 6.01 µM |  | 27.5 µM | > 100 µM | > 100 µM | 64.3 µM | 66.3 µM | 37.2 µM | 10.9 µM |  |  |  |  |  |  |  |  | 
32 | COc1cc(/C=C/c2ccc(OC(C)=O)cc2)cc(OC)c1OC | 52.6 µM | 94.1 µM | > 100 µM | 66.3 µM |  |  | 91.6 µM |  | 70.6 µM |  |  |  |  |  |  |  |  | 
33 | CC(=O)OC1C/C(C)=C/CCC(C)/C=C/C2(C)CCC(C(C)(C)O)C12 (stereo unspecified) | 55.5 µM | > 100 µM | 77.1 µM | > 100 µM | > 100 µM | > 100 µM | > 100 µM | > 100 µM | > 100 µM |  |  |  |  |  |  |  |  | 
